# Laboratory results: patent US11344554B2, “Animal and human anti-malarial agents” (Celgene Corporation, priority 2016, dated 2022)
# Test system: Plasmodium falciparum
# Experiment: Plasmodium falciparum in vitro [3H]-hypoxanthine parasite growth inhibition assay
# Assay type: cell-based
# Conditions: Erythrocyte, P. falciparum asexual blood stage parasites in human erythrocytes, [3H]-hypoxanthine uptake, read-out: Act Class (IC50 activity level)
row,Structure (SMILES),IC50 [µM]
1,"CC(C)(C)Nc1ncc2nc(Nc3cncc(Cl)c3)n(C3CCNCC3)c2n1 [Cpd 30, N2-tert-butyl-N8-(5-chloropyridin-3-yl)-9-(piperidin-4-yl)-9H-purine-2,8-diamine]",0.5 to 1.2
2,"CC1(Nc2ncc3nc(Nc4cccc(OC(F)(F)F)c4)n(C4CCNCC4)c3n2)CCOCC1 [Cpd 55, N2-(4-methyltetrahydro-2H-pyran-4-yl)-9-(piperidin-4-yl)-N8-(3-(trifluoromethoxy)phenyl)-9H-purine-2,8-diamine]",0.1 to 0.2
3,"CC1(Nc2ncc3nc(Nc4cc(Cl)cc(C(F)(F)F)c4)n(C4CCNCC4)c3n2)CCOCC1 [Cpd 54, N8-(3-chloro-5-(trifluoromethyl)phenyl)-N2-(4-methyltetrahydro-2H-pyran-4-yl)-9-(piperidin-4-yl)-9H-purine-2,8-diamine]",< 0.1
4,"CC1(Nc2ncc3nc(Nc4cc(F)cc(Cl)c4)n(C4CCNCC4)c3n2)CCOCC1 [Cpd 56, N8-(3-chloro-5-fluorophenyl)-N2-(4-methyltetrahydro-2H-pyran-4-yl)-9-(piperidin-4-yl)-9H-purine-2,8-diamine]",< 0.1

# Second part, the compound after the results:
row,IC50 [µM],Structure (SMILES)
1,< 0.1,"CC1(Nc2ncc3nc(Nc4cc(Cl)cc(C(F)(F)F)c4)n(C4CCNCC4)c3n2)CCC1 [Cpd 69, N8-(3-chloro-5-(trifluoromethyl)phenyl)-N2-(1-methylcyclobutyl)-9-(piperidin-4-yl)-9H-purine-2,8-diamine]"
2,0.2 to 0.5,"FC(F)(F)c1cc(Nc2nc3cnc(NC4CC4)nc3n2C2CCNCC2)ccc1Cl [Cpd 80, N8-(4-chloro-3-(trifluoromethyl)phenyl)-N2-cyclopropyl-9-(piperidin-4-yl)-9H-purine-2,8-diamine]"
